Reference: a melting point compilation (Tetko et al.; mined from patent text by program, amines drawn as free bases though some values may be those of a salt)

melting point [°C] | Structure (SMILES)
203 | Clc1nn2c(-c3ccccc3Br)nnc2c2ccccc12
212 to 214 | CC(C)(C)NC(=O)NC1(C#N)CCC1
180 to 182 | CC1c2cccn2-c2ccc(F)cc2N1S(=O)(=O)c1ccc(O)cc1 (stereo unspecified)
325 to 327 | COn1cc(C(=O)O)c(=O)c2cc3cc(F)c(F)cc3nc21
163 to 165 | C(CCc1ccccc1)=C1CCN(Cc2nc3ccccc3[nH]2)CC1
110 | CCOc1ccc(-c2c(S(C)(=O)=O)ccc(C(=O)c3cnn(C(C)(C)C)c3O)c2C)cc1
66 to 68 | C#CCNc1cccc2c1OC(F)(F)O2
225 to 230 | CCOC(=O)c1cn(-c2nc(N)c(F)cc2F)c2c(F)c(F)c(F)c(N)c2c1=O
136 to 138 | COc1ccc(S(=O)(=O)N2c3cc(Br)sc3-c3ccccc3[C@H]2C)cc1
146 to 148 | CO[C@@H]1CN(CCCOc2ccc(F)cc2)CC[C@@H]1NC(=O)c1cc(Cl)c(N)cc1O (relative stereo)
105 to 108 | N#CC(N=C(c1ccccc1)c1ccccc1)c1ncc(C(F)(F)F)cc1Cl (stereo unspecified)
151 to 152 | Cc1oc(-c2ccccc2)nc1COc1ccc(COc2nn(-c3ccccc3)cc2CC(=O)O)cc1
56 to 57 | CCOC(=O)Cc1sc(Sc2cccc(C(F)(F)F)n2)nc1C
168 to 171 | COc1ccc(C(=O)Nc2ccccc2)cc1NC(=S)Nc1cccc(C)c1
248 | COc1ccc(-c2[nH]nc3c2C(=O)c2c(NC(=O)NNC(=O)c4ccncc4)cccc2-3)cc1
92 to 93 | Cc1ccc(CC(=S)N[C@@H](Cc2ccccc2)C(=O)O)cc1
147 to 148 | CCCOc1cc(N(CC)CC)ccc1-c1nc2cc3c(cc2[nH]1)C(C)(C)CC(=O)N3
96 to 98 | O=S(=O)(NCCc1ccc(CCl)cc1)c1ccc(Cl)cc1
152 to 154 | c1ccc(CNc2nc(-c3ccco3)nc3ccccc23)cc1
208 to 210 | COc1ccc(-c2nc(NC(C)=O)sc2-c2cccnc2)cc1
134 to 136 | CC(C)C[C@H](NC(=O)[C@H](NC(=O)OCc1ccccc1)C(C)C)C(=O)O
120 to 121 | COC(=O)NC1CCc2sc(Cl)cc2C1 (stereo unspecified)
44 to 45 | c1cncc(-c2nccs2)c1
102 to 108 | COC(=O)c1nn(-c2cccnc2)cc1N

melting point [°C] | Structure (SMILES)
161 | Cc1ccc2c(c1)cc(Cc1ccc(C(=O)O)cc1)n2S(=O)(=O)c1cccc(C(C)(C)C)c1
63 to 66 | CCCc1c(OCCCCCC(=O)NC(C)CCCc2cccnc2)ccc(C(C)=O)c1O (stereo unspecified)
154 | CCN(CC)CCOc1ccc(Nc2ncc3c(n2)N(C)C(=O)N(C(C)C)C3)cc1
154 to 156 | Cc1ccc(-c2cn(C)cc(-c3cccc(C(F)(F)F)c3)c2=O)cc1
222 to 223 | COc1cccc2nc(-c3ccc(OCCNC(C)C)c(-c4ccc(S(C)(=O)=O)cc4)n3)[nH]c(=O)c12
141 to 144 | CCCc1nc(C#N)c(C#N)[nH]1
103 | COc1ccc(Cl)c(Oc2c(CO)nc(N3CCOCC3)nc2NS(=O)(=O)c2ccc(C(C)(C)C)cc2)c1
167 | CC(O)(C(=O)Nc1ccc(Cl)cc1)c1ccc(F)cc1Cl (stereo unspecified)
135 to 136 | CC(=O)NCCCC(=O)N1CCCC(=O)c2ccc(Cl)cc2CCC1=O
267 to 269 | O=C(c1ccc(S(=O)(=O)c2ccc3cc(Cl)ccc3c2)cc1)N1CCN(c2ccncc2)CC1
156 to 160 | C#CCN1C(=O)NC(C)(C)C1=O
155 to 157 | O=C1CCc2c(-c3ccc(F)cc3)sc(-c3ccncc3)c21
45.8 | C=Cc1ccc(C=CC#N)cc1
186 to 187 | COCCNC(=O)c1cc2c(nc(C)n2C)c2c1CCC1(Cc3ccccc3C1)N2
254 to 256 | COc1ccc(Cn2c(=O)[nH]c3cc(Cl)ccc3c2=O)cc1
202 to 203 | CCC(=O)N1c2cscc2C(=O)N(C)c2ccccc21
98 to 99 | CCCOC(=O)N(C)SN(C(=O)NC(=O)c1c(F)cccc1F)c1ccc(Oc2ccc(C(F)(F)F)cc2Cl)cc1F
62 to 64 | Cc1[nH]cnc1CCC(=O)N(C)C
72 to 74 | Cc1cccc(N2CCN(CCC3CN(C)C(=O)O3)CC2)c1 (stereo unspecified)
175 to 177 | CCOC(=O)c1cc(=O)c2cccc(NC(=O)c3ccc4c(c3)CC(CSCc3ccccc3)O4)c2o1 (stereo unspecified)
128 | OCCON=Cc1ccc2ccccc2n1
95 | OC(COc1ccccc1Cl)(Cn1cncn1)Cn1cncn1
157 to 160 | CCn1cc(F)c(N=CN(C)C)nc1=O
158 to 160 | S=C(Cc1cccnc1)N1CCOCC1

melting point [°C] | Structure (SMILES)
217 | Cc1cccc(Cl)c1NS(=O)(=O)c1n[nH]c(N)n1
139 to 140 | N#Cc1cccc(-c2ccc(O)c(C=O)c2)c1
193 to 194 | CN(C)C(=O)COC(=O)c1cc(S(N)(=O)=O)c(Cl)cc1NCc1ccco1
145 | COc1cc(-c2nc3ccccc3n2Cc2ccc(Cl)c(Cl)c2)cc(OC)c1OC
87 to 88 | CCCc1nn(-c2ccc(C(F)(F)F)cn2)cc1CCCOc1ccccc1CCC(=O)O
201 to 202 | Cc1cccc2sc(COc3ccc(F)c(C(N)=O)c3F)nc12
117 to 118 | CCCC(CCC)C(=O)NCC(=O)NCCCCCNC(=O)n1cc(F)c(=O)[nH]c1=O
175 to 176 | Cc1c(C#N)c(=O)oc2c(C)c(O)c(CC(Br)CBr)cc12 (stereo unspecified)
138 to 139 | COc1cccc(C23CCC(=O)C(C2)NC3=O)c1 (stereo unspecified)
131 to 136 | CCC(=CC(CNC(=O)c1ccc(NS(C)(=O)=O)nc1)=NO)C(C)[N+](=O)[O-] (stereo unspecified)
150 to 151 | Cc1nnc(-c2nnc(S)o2)o1
104 to 110 | O=C(Nc1ccc2[nH]cnc2c1)C(=O)N1CCC(Cc2ccc(F)cc2)CC1
75 to 85 | CCCSC1=NSc2ccccc2N1Cc1ccc(-c2ccccc2C(=O)O)cc1
159 to 161 | COc1cc(OC)cc(-c2nc[nH]c2-c2ccc(OC(F)F)c(O)c2)c1
116 to 117 | CCCCCCCCCCCCCCc1ccc(S(=O)(=O)Nc2nncs2)cc1
109 to 111 | Cc1ccc(CN(C(=S)Nc2ccccc2)C2CCCC2)cc1
170 to 173 | CCCCNC(=O)NS(=O)(=O)c1cccc2c1nnn2C
172 | CCC(C(=O)c1ccc(Cl)cc1)n1ncn(-c2ccc(N3CCN(C(=O)Cc4ccccc4)CC3)cc2)c1=O (stereo unspecified)
190 to 191 | CC1CCN(c2ccnc(NC(=O)NCc3ccccn3)c2)C1=O (stereo unspecified)
123 | CC1CCC(C(C)C)C(C(=O)NC(C)(C)CO)C1 (stereo unspecified)
240 to 241 | NS(=O)(=O)c1cc2c(cc1Cl)C(=O)N(CCc1ccccn1)C2=O
214 to 215 | COc1cc2ncc(C#N)c(Cl)c2cc1[N+](=O)[O-]
> 250 | CNC(=O)c1c(O)c(=O)cc(C)n1C
207 to 209 | Cc1cc(C(=O)NCc2cccc3c2C(=O)N(C2CCC(=O)NC2=O)C3=O)no1 (stereo unspecified)

melting point [°C] | Structure (SMILES)
> 300 | CCC(CC)c1ccc(Cl)c2nc3n(c12)CCN3c1ccc(Cl)cc1C(N)=O
63 to 64 | CCCCCCCCCCCCCCOCC(CO)(CO)COCCCCCCCCCCCCCC
215 to 217 | CCCCC(=O)OCCOCn1cnc2c(=O)[nH]c(N)nc21
46 to 48 | CCc1nc(Cl)c2sccc2n1
163 to 164 | CC(C#Cc1ccc(-c2ccccc2)o1)N(O)C(N)=O (stereo unspecified)
173 | CCOc1ccc2c(c1)N=C(c1cccc(-c3ccc(C)nc3)c1)CC(=O)N2
155 | CCC1c2c(ncn2CC)CCN1C(=O)NC(C)C (stereo unspecified)
158 to 159 | COC(=O)C(O)=CC(=O)c1cn(Cc2ccccc2)c(=O)n(Cc2ccccc2)c1=O
170 to 171 | CCCn1ccc2c(NCCc3ccc(O)cc3)cccc2c1=O
252 to 254 | COc1ccc(OC)c(Cc2cnc3nc(N)nc(N)c3c2C)c1
106 to 109 | O=C(CN1C(=O)CC1S(=O)(=O)c1ccccc1)NCCCCCCc1ccc(Cl)cc1 (single isomer, unassigned; (-))
128 to 130 | CN1N=C(c2ccccc2)C(C)(C)NC1=O
139 | Fc1cc(F)cc(CN2CCN(c3cc(-c4ccccc4)c(C(F)(F)F)nn3)CC2)c1
110 to 112 | COc1cc2c(cc1OC)CN(CCCNS(=O)(=O)c1cc(Cl)c(F)cc1F)CC2
92 to 93 | CN1Cc2cscc2Nc2cc(Cl)c(Cl)cc21
300 | CC1(C)C(=O)Nc2cc3[nH]c(-c4ccc(-n5ccnc5)cc4)nc3cc21
133 to 135 | CC(=O)Nc1ccc(CN(C)C)c(O)c1
210 to 214 | COc1cc(OC)nc(Oc2ccc(N)nc2C(=O)ON=C(C)C)n1
113 to 115 | CC(C)(C)OC(=O)CN1C(=O)[C@H](N)CCc2ccccc21
69.5 to 71 | OC[C@@H](O)[C@@H]1OC[C@H](O)[C@H]1O (racemic)
73 to 75 | CCSc1nc(-c2ccc(OC)cc2)c(-c2ccc(OC)cc2)s1
301 | c1ccc(-c2ccc(-c3cc4ccccc4[nH]3)cc2)cc1
133 to 134 | CC(C)Cn1c(C(=O)OC(C)(C)C)c(O)c2cc(OCc3ccccc3)ccc2c1=O
135 to 137 | CN1CN(C(=O)c2c(F)cccc2F)C(=O)N(c2ccc(SC(F)F)cc2F)C1

Structure (SMILES) | melting point [°C]
O=C1OCC2CCC1(c1ccc(Cl)cc1Cl)O2 (stereo unspecified) | 136 to 137
Cc1ccc(-c2cc(C(=O)O)nn2Cc2ccc(C)c(Cl)c2)cc1 | 108
CN1CCc2cccc3c4c(n(c23)CC1)CCC4 | 128 to 130
CC(C)(C)c1cc(CP(=O)(Oc2ccccc2)Oc2ccccc2)cc(C(C)(C)C)c1O | 130
ClCCN(CCCl)CCOc1cccc(Nc2c3ccccc3nc3c(OCCN(CCCl)CCCl)cccc23)c1 | 108 to 109
